Measured values as given in patent publication US12678411B2, “Nanoformulations of pazopanib, compositions comprising the same and methods of treating osteoarthritis” (The United States Government as represented by the …, priority 2021, dated 2026).

Experiments:
[1] = test system: mice with knee joint OA (PMM); test: Mechanical allodynia (von Frey) in surgery-induced (PMM) knee OA mice; format: in vivo; details: IA 70 μg/kg twice per week, started at inflammatory pain stage
Protocol: Drugs are intraarticularly injected (twice/week) at 4 weeks after surgery (early OA stage). *p<0.05; **p<0.01; ***p<0.001; ****p<0.0001. PMM=partial medial meniscectomy.
2006; 33(2):348-354; and Kroin J S, et al. Gene. 2016. 10; 591(1): 1-5). Next, outcomes between IA injection of ZD6474 (also known as vandetanib, a selective inhibitor of Flk1, 70 μg/kg, injection frequency: twice per week) and pazopanib (an inhibitor of both Flt1 and Flk1, 70 μg/kg, injection frequency: twice per week) were compared. Twice perweek IA injection of these drugs was started at an inflammatory pain stage (within a week post-surgery) and continued for 12 weeks. After 12 weeks, joints were harvested, histopathological analyses performed, and pathological grading quantified by standard Osteoarthritis Research Society International (OARSI) scoring (1: Healthy, 5: Highly pathologic) (K. O. Vasquez and J. D. Peterson. J Pharmacol Exp Ther 2017, 361:87-98).
Nanoparticles of PEG-PCL (5k-b-6.5k) encapsulating pazopanib were prepared by the flash nanoprecipitation method using a multi-inlet vortex mixer (MIVM) (FIG. 13, nano-PAZ(I)). The resulting composition was intraarticularly injected into the knee joint of mice at the inflammatory pain stage (at one week after OA induction by surgery).

mice [2] = details: cited from earlier work
mice [3] = test: Mechanical hyperalgesia after intrathecal injection in mice; format: in vivo; details: intrathecal (i.t.) injection
Protocol: VEGF-A induces pain hypersensitivity through effects in the peripheral nervous system (PNS) and central nervous system (CNS). IA injection of Flt1 ligand (but not Flk1 ligand) caused mechanical hypersensitivity within 30 min (FIG. 2), showing that Flt1 ligands can directly activate the PNS to induce pain. Additionally, it was reported that animals with chronic OA pain had increased spinal levels of VEGF-A (FIG. 10). […] Given the similar dose (10 ng) and time course of mechanical hyperalgesia following IA injection (FIG. 2) and i.t. injections of VEGF-A (FIG. 11), VEGF signaling appears to be equally able to induce pain hypersensitivity in the PNS and CNS.

COc1cc2c(Nc3ccc(Br)cc3F)ncnc2cc1OCC1CCN(C)CC1 [ZD6474, vandetanib]
time after start of drug injection at which reduction in OA pain was seen [1]: 5 weeks

NGF: nerve growth factor, a well-known OA pain mediator
mechanical allodynia after IA injection (mice [2]): acutely increased mechanical allodynia
pain response (mechanical hyperalgesia) (mice [3]): no pain response
